Some test systems named below: SW-620; BT-549; HCC 2998; OVCAR-3; SK-MEL-2; PC-3; M14; Hs-578T; SNB-19; LOX IMVI; NCI/ADR-RES; HOP-92; OVCAR-8; IGROV-1; SF-295; MCF7; U-251; HOP-62; DU-145; NCI-H460.
Holding throughout (assay): DTP human tumour cell line panel, 48 h

The text below walks through data of ChEMBL document CHEMBL1201862, “PubChem BioAssay data set” (2004).

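96-well plates; 48 h exposure; 5 concentrations. Endpoints by linear interpolation between flanking doses. Not reached: highest tested concentration assigned. At the GI50, growth is halved.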 Active and inactive are the calls of the source. Cut-off read from the data, not from the text of the source: active = GI50 up to about 1.1 µM and inactive = higher.

For the compound `C/C(=N\O)c1ccc(Nc2c3ccccc3nc3occc23)cc1`, the GI50 (in general, the concentration at which growth is held to half of that of the control) in the assay on SW-620 is 0.21 µM (active); in the assay on BT-549 it was 0.366 µM (active); in the assay on HCC 2998 it was 0.316 µM (active); with OVCAR-3, 0.695 µM (active); in the assay with SK-MEL-2, 0.196 µM (active); in the assay on PC-3 it was 0.327 µM (active). The concentration for 50% growth inhibition (GI50) is 0.236 µM (active) in the assay on M14; 0.352 µM (active) in the assay on Hs-578T; 0.603 µM (active) in the assay on SNB-19; 0.29 µM (active) in the assay with LOX IMVI; 0.115 µM (active) in the assay on NCI/ADR-RES; 12.2 µM (inactive) in the assay with HOP-92. The GI50 in the assay with OVCAR-8 is 0.531 µM (active); in the assay with IGROV-1, 0.231 µM (active); in the assay on SF-295, 0.151 µM (active); with MCF7, 0.18 µM (active); in the assay on U-251 it was 0.333 µM (active); in the assay on HOP-62, 0.436 µM (active). Further, the figures for the GI50 in the assay on DU-145 and with NCI-H460 were 1.05 µM (active) and 0.2 µM (active), respectively.
For `Clc1ccc(OCc2nnc(COc3ccc(OCc4nnc(COc5ccc(Cl)cc5Cl)o4)c(Cl)c3)o2)c(Cl)c1`, the GI50 in the assay on SW-620 is 70.1 µM (inactive); with BT-549, 69.2 µM (inactive); in the assay on HCC 2998, 28.7 µM (inactive); with OVCAR-3, 25.2 µM (inactive); in the assay on SK-MEL-2, 33.8 µM (inactive); in the assay on PC-3, 29.9 µM (inactive). The GI50 was 76.4 µM (inactive) in the assay on M14; 42.5 µM (inactive) with Hs-578T; 68.4 µM (inactive) in the assay on SNB-19; 17.3 µM (inactive) in the assay on LOX IMVI; 24.5 µM (inactive) in the assay on NCI/ADR-RES; 7.48 µM (inactive) with HOP-92. The GI50 with OVCAR-8 was 41.4 µM (inactive); with IGROV-1, 17.7 µM (inactive); with SF-295, 33.3 µM (inactive); in the assay with MCF7 it was 32.1 µM (inactive); with U-251 it was 23 µM (inactive); in the assay with HOP-62 it was 51.6 µM (inactive). The results for the GI50 with DU-145 and in the assay with NCI-H460 were 71.3 µM (inactive) and 72.4 µM (inactive), respectively.
With `COc1ccc(C2SC(=N)Nc3c2c(C)nn3C(=O)c2ccncc2)cc1OC` (stereo not given), the GI50 in the assay with SW-620, in the assay with BT-549, in the assay with HCC 2998, in the assay with OVCAR-3, with SK-MEL-2 and with PC-3 was > 10 µM (inactive) in each case. In addition, the GI50 in the assay on M14, in the assay on Hs-578T, in the assay on SNB-19, in the assay with LOX IMVI, with NCI/ADR-RES and in the assay with HOP-92 was > 10 µM (inactive) throughout. The GI50 in the assay with OVCAR-8, in the assay with IGROV-1, with SF-295, with MCF7, with U-251 and with HOP-62 was > 10 µM (inactive) throughout. Moreover, the GI50 in the assay on DU-145 and in the assay with NCI-H460 was > 10 µM (inactive) throughout.
As to `CN1CCN(C(=O)CCNC(=O)Cc2ccc(C(=O)c3ccccc3)cc2)CC1`, the GI50 in the assay on SW-620 is 97.3 µM (inactive); in the assay on BT-549 it was 64.3 µM (inactive); with HCC 2998, 50 µM (inactive); with OVCAR-3, > 100 µM (inactive); in the assay with SK-MEL-2, > 100 µM (inactive); in the assay with PC-3, > 100 µM (inactive). Further, the GI50 in the assay on M14, with Hs-578T, in the assay with SNB-19, with LOX IMVI, with NCI/ADR-RES and in the assay with HOP-92 was > 100 µM (inactive) throughout. Moreover, the GI50 in the assay on OVCAR-8, in the assay with IGROV-1, in the assay with SF-295, with MCF7, with U-251 and in the assay on HOP-62 was > 100 µM (inactive) in each case. Moreover, the GI50 with DU-145 and in the assay on NCI-H460 was > 100 µM (inactive) each time.
For `Cc1nc(C(N)=S)sc1/C(CC(=O)C(=O)Nc1cccc2ccc(O)cc12)=N\NC(=O)c1ccncc1`, the GI50 in the assay with SW-620 is > 100 µM (inactive); with BT-549, > 100 µM (inactive); with HCC 2998, 59.8 µM (inactive); with OVCAR-3, 34 µM (inactive); in the assay on SK-MEL-2 it was > 100 µM (inactive); with PC-3, 75.9 µM (inactive). The GI50 was > 100 µM (inactive) with M14; > 100 µM (inactive) in the assay with Hs-578T; 73.5 µM (inactive) in the assay with SNB-19; 42.2 µM (inactive) in the assay on LOX IMVI; > 100 µM (inactive) in the assay on NCI/ADR-RES; 31.6 µM (inactive) in the assay with HOP-92. In addition, the GI50 with OVCAR-8 was 49.1 µM (inactive); with IGROV-1, 53.7 µM (inactive); in the assay with SF-295, > 100 µM (inactive); in the assay with MCF7 it was 39.7 µM (inactive); in the assay on U-251, 68.5 µM (inactive); with HOP-62, 37.5 µM (inactive). The GI50 in the assay on DU-145 is 55.3 µM (inactive); in the assay on NCI-H460, 22.9 µM (inactive).
In the case of `CCCNC(=S)N/N=C(\C)c1ccc(S(=O)(=O)N(C)c2ccccc2)cc1`, the GI50 in the assay on SW-620 is > 100 µM (inactive); in the assay with BT-549, > 100 µM (inactive); in the assay on HCC 2998, > 100 µM (inactive); with OVCAR-3, > 59.2 µM (inactive); in the assay with SK-MEL-2 it was 40.8 µM (inactive); with PC-3, > 100 µM (inactive). In addition, the GI50 with M14 is > 29.1 µM (inactive); in the assay with Hs-578T, 3.64 µM (inactive); in the assay with SNB-19, 39.4 µM (inactive); with LOX IMVI, > 100 µM (inactive); in the assay on NCI/ADR-RES it was > 89.3 µM (inactive); in the assay with HOP-92, 20.4 µM (inactive). Also, the GI50 in the assay on OVCAR-8 was 24.5 µM (inactive); with IGROV-1, 22.1 µM (inactive); in the assay on SF-295, 18.3 µM (inactive); in the assay on MCF7, 57 µM (inactive); with U-251, 19.7 µM (inactive); in the assay with HOP-62, 6.34 µM (inactive). Also, the GI50 with DU-145 is > 78.5 µM (inactive); with NCI-H460 it was > 100 µM (inactive).
For `Fc1ccc(C(OCCN2CCC3CCC(C2)N3C/C=C/c2cccs2)c2ccc(F)cc2)cc1` (stereo not given), the GI50 in the assay with SW-620 was 5.98 µM (inactive); in the assay on BT-549, 13.2 µM (inactive); in the assay on HCC 2998 it was 3.21 µM (inactive); with OVCAR-3, 10.6 µM (inactive); in the assay with SK-MEL-2, 10.7 µM (inactive); in the assay on PC-3, 5.75 µM (inactive). In addition, the GI50 was 4.25 µM (inactive) in the assay on M14; 12.1 µM (inactive) with Hs-578T; 13.9 µM (inactive) in the assay on SNB-19; 6.38 µM (inactive) in the assay on LOX IMVI; 6.24 µM (inactive) in the assay on NCI/ADR-RES; 6.25 µM (inactive) with HOP-92. In addition, the GI50 in the assay with OVCAR-8 was 4.06 µM (inactive); with IGROV-1, 10.1 µM (inactive); in the assay on SF-295, 10.5 µM (inactive); in the assay with MCF7, 7.69 µM (inactive); with U-251, 5.64 µM (inactive); in the assay on HOP-62 it was 13.6 µM (inactive). Moreover, the GI50 with DU-145 was 12.3 µM (inactive); with NCI-H460 it was 3.08 µM (inactive).
